Broadly, the pKi is the Ki on a negative log10 scale, so that one unit is a factor of ten. Low values mean a high Ki, high ones a low Ki.

The target in the assay is Trifunctional purine biosynthetic protein adenosine-3 (Mus musculus) (UniProt Q64737). In words: Compound was evaluated for the inhibition of GAR transformylase isolated from murine lymphoma cell line L5178Y.

pKi: −log10 of the molar value.

Sequence of Trifunctional purine biosynthetic protein adenosine-3 (Mus musculus) (Q64737 whole entry, looked up): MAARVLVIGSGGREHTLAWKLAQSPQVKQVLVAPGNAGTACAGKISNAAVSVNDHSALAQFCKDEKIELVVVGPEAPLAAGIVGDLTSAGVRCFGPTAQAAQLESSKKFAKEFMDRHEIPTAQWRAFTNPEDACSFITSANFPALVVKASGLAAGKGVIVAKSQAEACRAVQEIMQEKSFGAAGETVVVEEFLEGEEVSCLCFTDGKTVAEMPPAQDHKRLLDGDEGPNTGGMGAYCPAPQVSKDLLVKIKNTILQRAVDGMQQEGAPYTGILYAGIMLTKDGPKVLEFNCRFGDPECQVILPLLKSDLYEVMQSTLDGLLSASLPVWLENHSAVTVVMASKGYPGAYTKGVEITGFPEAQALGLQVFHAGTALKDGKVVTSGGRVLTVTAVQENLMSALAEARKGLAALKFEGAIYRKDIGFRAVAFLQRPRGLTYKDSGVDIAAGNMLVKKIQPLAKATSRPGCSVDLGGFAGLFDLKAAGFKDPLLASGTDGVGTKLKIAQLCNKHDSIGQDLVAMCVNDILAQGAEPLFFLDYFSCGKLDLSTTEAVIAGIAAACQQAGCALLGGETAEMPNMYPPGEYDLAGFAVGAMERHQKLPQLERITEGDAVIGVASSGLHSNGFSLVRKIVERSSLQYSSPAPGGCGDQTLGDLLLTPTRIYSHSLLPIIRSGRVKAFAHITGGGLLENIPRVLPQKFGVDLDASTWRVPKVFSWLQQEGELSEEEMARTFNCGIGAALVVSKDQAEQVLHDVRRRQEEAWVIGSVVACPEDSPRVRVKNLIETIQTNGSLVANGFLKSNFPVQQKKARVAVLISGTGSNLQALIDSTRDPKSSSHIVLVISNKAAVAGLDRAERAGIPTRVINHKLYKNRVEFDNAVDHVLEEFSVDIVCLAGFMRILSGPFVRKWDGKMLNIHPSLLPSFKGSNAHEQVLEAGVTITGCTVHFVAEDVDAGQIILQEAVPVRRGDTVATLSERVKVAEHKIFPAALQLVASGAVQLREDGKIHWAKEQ

Compound `Nc1nc2ccc(CNc3ccc(C(=O)NC(CCC(=O)O)C(=O)O)cc3)cc2c(=O)[nH]1` (configuration not stated) showed a pKi of 5.70.

In turn, `CC(=O)N(Cc1ccc2nc(N)[nH]c(=O)c2c1)c1ccc(C(=O)NC(CCC(=O)O)C(=O)O)cc1` (configuration not stated) [2-{4-[Acetyl-(2-amino-4-oxo-3,4-dihydro-quinazolin-6-ylmethyl)-amino]-benzoylamino}-pentanedioic acid] showed a pKi of 5.89.
